This note sets out measurements from patent US7192581B2, “Lactobacillus reuteri useful as probiotics” (Probionic Corp., priority 2001, dated 2007).

Values after ≈ are worked out from the molar mass of the structure shown. Where two headings read alike, the source gives them in different places.

The assay deals with #Probio-16. Kind of assay: Antibiotic susceptibility of #Probio-16 (paper disc). Type of assay: cell-based, Lactobacillus reuteri. The procedure: Antibiotic susceptibility of #Probio-16 was assayed according to Microbiology procedures handbook vol. 1 (Henry D. Isenberg, ASM) and Korean Pat. Publication No. 91-4366. In this regard, 13 antibiotics, that is, cephalexcin, erythromycin, flumequinine, furazolidine, gentamycin, procaine, penicillin G, norflaxacine, spectinomycin, tetracycline, tiamuline, neomycin, chloramphenicol, and kanamycin, were dissolved in appropriate solvents. By concentrations, the prepared antibiotic solutions were inoculated in an amount of 30 μl onto a paper disc which was then allowed to stand for 1 hour at 4° C. Inhibitory circles emerging after 24 hours of anaerobic incubation were measured.
Assay of #Probio-16 for antibiotic susceptibility was conduced according to Microbiology Procedures Handbook vol. 1 (Henry D. Isenberg, ASM) and Korean Pat. Publication No. 91-4366, with regard to 13 antibiotics, including cephalexcin, erythromycin, flumequinine, furazolidine, gentamycin, procaine, penicillin G, norflaxacine, spectinomycin, tetracycline, tiamuline, neomycin, chloramphenicol, and kanamycin. By concentrations, antibiotic solutions were inoculated in an amount of 30 μl onto a paper disc which was then allowed to stand for 1 hour at 4° C. Inhibitory circles emerging after 24 hours of anaerobic incubation were measured.

Where [1] appears, read: against #Probio-16, 24 hours anaerobic incubation (Table 3).
Where [2] appears, read: against Lactobacillus reuteri Probio-16.
Where [3] appears, read: Limosilactobacillus reuteri, against #Probio-16, 24 hours anaerobic incubation (Table 3), read-out: MIC.
Setting [4] is: Limosilactobacillus reuteri, against Lactobacillus reuteri Probio-16, read-out: minimal inhibitory concentration (MIC).
[5] abbreviates: against Lactobacillus reuteri Probio-16 (unit not given).

In the case of `CC1=C(C(=O)O)N2C(=O)[C@@H](NC(=O)[C@H](N)c3ccccc3)[C@H]2SC1` [Cephalexcin], under setting [1], the “MIC” value came to 90 µg/mL (≈ 259 µM). Further, the “minimal inhibitory concentration (MIC)” value under setting [2] came to 90 µg/mL (≈ 259 µM).

As for `O=C(N[C@H](CO)[C@H](O)c1ccc([N+](=O)[O-])cc1)C(Cl)Cl` [Chloramphenicol], the MIC stood at 200 µg/mL (≈ 619 µM) under setting [3] and 200 µg/mL (≈ 619 µM) under setting [4].

For `CC[C@H]1OC(=O)[C@H](C)[C@@H](O[C@H]2C[C@@](C)(OC)[C@@H](O)[C@H](C)O2)[C@H](C)[C@@H](O[C@@H]2O[C@H](C)C[C@H](N(C)C)[C@H]2O)[C@](C)(O)C[C@@H](C)C(=O)[C@H](C)[C@@H](O)[C@]1(C)O` [Erythromycin], the MIC was determined as 4 µg/mL (≈ 5.45 µM) under setting [3] and 4 µg/mL (≈ 5.45 µM) under setting [4].

For the compound `CC1CCc2cc(F)cc3c(=O)c(C(=O)O)cn1c23` (centres unmarked) [Flumequinine], under setting [1], the “MIC” value amounted to 4000 µg/mL (≈ 15300 µM). Further, the “minimal inhibitory concentration (MIC)” value under setting [2] is on record as 4,000 μg/ml.

Consider `O=C1OCCN1/N=C/c1ccc([N+](=O)[O-])o1` [Furazolidine], for which the “MIC” value under setting [1] was 90 µg/mL (≈ 400 µM). For the same compound, the “minimal inhibitory concentration (MIC)” value under setting [2] was found to be 90 µg/mL (≈ 400 µM).

For `NC[C@H]1O[C@H](O[C@H]2[C@H](O)[C@@H](O[C@H]3O[C@H](CO)[C@@H](O)[C@H](N)[C@H]3O)[C@H](N)C[C@@H]2N)[C@H](O)[C@@H](O)[C@@H]1O` [Kanamycine], the MIC under setting [3] turned out to be 4000 µg/mL (≈ 8260 µM) and the MIC under setting [4] was found to be 4000 µg/mL (≈ 8260 µM).

Consider `NC[C@@H]1O[C@H](O[C@H]2[C@@H](O)[C@H](O[C@@H]3[C@@H](O)[C@H](N)C[C@H](N)[C@H]3O[C@H]3O[C@H](CN)[C@@H](O)[C@H](O)[C@H]3N)O[C@@H]2CO)[C@H](N)[C@@H](O)[C@@H]1O` [Neomycine], for which, under setting [1], the “MIC” value came out at 100 µg/mL (≈ 163 µM). Besides, the “minimal inhibitory concentration (MIC)” value under setting [2] is 100 µg/mL (≈ 163 µM).

`CCn1cc(C(=O)O)c(=O)c2cc(F)c(N3CCNCC3)cc21` [Norflaxacine]: the “MIC” value under setting [1] worked out at 1000 µg/mL (≈ 3130 µM). Also, the “minimal inhibitory concentration (MIC)” value under setting [5] was 100.

`CN[C@@H]1[C@H](O)[C@H](NC)[C@H]2O[C@@]3(O)C(=O)C[C@@H](C)O[C@H]3O[C@@H]2[C@H]1O` [Spectinomycine]: the MIC is, setting by setting: under setting [3], 2500 µg/mL (≈ 7520 µM); under setting [4], 2500 µg/mL (≈ 7520 µM).

As to `CN(C)[C@@H]1C(O)=C(C(N)=O)C(=O)[C@@]2(O)C(O)=C3C(=O)c4c(O)cccc4[C@@](C)(O)[C@H]3C[C@@H]12` [Tetracycline], the MIC was found to be 1500 µg/mL (≈ 3380 µM) under setting [3] and 1500 µg/mL (≈ 3380 µM) under setting [4].

As to `C=C[C@]1(C)C[C@@H](OC(=O)CSCCN(CC)CC)[C@]2(C)[C@H](C)CC[C@]3(CCC(=O)[C@H]32)[C@@H](C)[C@@H]1O` [Tiamuline], the MIC amounted to 300 µg/mL (≈ 608 µM) under setting [3] and 300 µg/mL (≈ 608 µM) under setting [4].

With `CC1(C)S[C@@H]2[C@H](NC(=O)Cc3ccccc3)C(=O)N2[C@H]1C(=O)O.CCN(CC)CCOC(=O)c1ccc(N)cc1` [procaine Penicilline G], the “MIC” value under setting [1] is 4 µg/mL. Also, the “minimal inhibitory concentration (MIC)” value under setting [5] came out at 4.

On to Gentamycine, for which the “MIC” value under setting [1] came out at 100 µg/mL. Besides, the “minimal inhibitory concentration (MIC)” value under setting [2] was found to be 100 µg/mL.
